Legend:
audiogenic seizures = experiment: Protective effects against audiogenic seizures in mice; format: in vivo; conditions: oral; 800 mg./kg. valproic acid equivalent; 30 min after dosing; bell for one minute; groups of 10 mice
Method: The valproic acid equivalent of 800 mg./kg. of each compound was administered by oral intubation in a composition prepared as shown in Example 12 to groups of 10 mice. Thirty minutes after dosing, convulsions were produced by electrically activating a bell for one minute.

gastro-intestinal tract = conditions: cited from earlier work
epileptic seizures = conditions: stated as background; cited from earlier work
[1] = Valproic acid blood plasma levels after oral intubation in mice; format: in vivo; conditions: mouse, equivalent of 200 mg. valproic acid per animal, mean of 3-18 animals
Method: (§1) The compounds of the present invention were administered to mice and rats by oral intubation. A vehicle of 0.5% aqueous methylcellulose containing one drop of a polyethylene sorbitan monooleate was used to suspend the above compounds. In the case of Example 1, the compound was first ground in a tissue-homogenizer followed by mixing in a Waring blender. The results are shown in Table I expressed in mcg. of valproic acid per ml. of blood plasma at specified times.

[2] = Absorption profiles and area-under-the-curve in beagle dog; format: in vivo; conditions: blood, single oral dose 24.9 mg./kg. valproic acid equivalent
Method: Since it is possible that the new compounds are not absorbed as quickly as valproic acid itself, absorption profiles and area-under-the-curve (AUC) values were calculated for valproic acid, glyceride trivalproate and representatives of the current compounds. The phrase AUC values represents the total quantity of the compound which is absorbed by the blood during the time periods referred to in Table III expressed in mcg./ml. A beagle dog received a single oral dose of 24.9 mg./kg. valproic acid equivalent in a composition prepared as shown in Example 12. The blood concentrations are shown in Table III as mcg./ml. while the AUC values are expressed as hr.×mcg./ml.

[3] = Valproic acid blood plasma levels after oral intubation in rats; format: in vivo; conditions: rat, equivalent of 200 mg. valproic acid per animal, mean of 3-18 animals
Method: as §1

SMILES | Percentage of Mice Exhibiting Seizures, Any Type (audiogenic seizures) [%] | Percentage of Mice Exhibiting Seizures, Tonic Extension (audiogenic seizures) [%] | adverse side effects (gastro-intestinal tract; reported by Meijer and Meinardi, 1975) | therapeutic value (epileptic seizures) | gastro-intestinal irritation in patients (gastro-intestinal tract; patients using valproic acid) | concentration at 0.5 h ([1]; 0.5 hrs.) [ng/mL] | concentration at 1.5 h ([1]; 1.5 hrs.) [ng/mL] | concentration at 0.5 h ([2]; 0.5 hrs.) [ng/mL] | concentration at 1 h ([2]; 1 hr.) [ng/mL] | concentration at 2 h ([2]; 2 hrs.) [ng/mL] | concentration at 4 h ([2]; 4 hrs.) [ng/mL] | concentration at 6 h ([2]; 6 hrs.) [ng/mL] | AUC at 8 h ([2]; 8 hrs.) [ng·h/mL] | concentration at 0.5 h ([3]; 0.5 hrs.) [ng/mL] | concentration at 1.5 h ([3]; 1.5 hrs.) [ng/mL]
CCCC(CCC)C(=O)OCC(O)CO (racemic) [Example 6, 1-Valproyl-glycerol] | 50 | 10 | – | – | – | – | – | – | – | – | – | – | – | – | –
CCCC(CCC)C(=O)OC(COC(C)=O)COC(C)=O [Example 5, 1,3-Diacetyl-2-valproyl-glyceride] | 50 | 10 | – | – | – | – | – | – | – | – | – | – | – | – | –
CCCC(CCC)C(=O)OCC(COC(=O)C(CCC)CCC)OC(=O)C(CCC)CCC [Glycerol trivalproate] | 100 | 80 | no adverse side effects | substantially no therapeutic value | – | – | – | – | – | – | – | – | – | – | –
CCCC(CCC)C(=O)O [Valproic Acid, 2-propylpentanoic acid] | 50 | 10 | – | – | 9-16% | 134000 | 72000 | 65600 | 40800 | 9000 | 2600 | 1300 | 82200 | 84100 | 27500
